Data: US8618129B2, “Substituted 1-oxo-dihydroisoquinoline-3-carboxamides as KCNQ2/3 modulators” (Gruenenthal GmbH, priority 2010, dated 2013)
pEC50: −log10 of the molar value.

What was measured:
[1] = molecular target: T1, KCNQ2/3 channels (Homo sapiens, UniProt O43525+O43526); experiment: Fluorescence assay using a voltage sensitive dye (fluorimetry); type: cell-based; settings: CHO-K1 cells expressing KCNQ2/3 channels; for Emax: agonistic efficacy relative to retigabine = 100%
T1 construct: expressed in transfected cells; host or cells: CHO-K1 cells, kept under selection antibiotics
Method: Method I. Fluorescence Assay Using a Voltage Sensitive Dye
Human CHO-K1 cells expressing KCNQ2/3 channels are cultivated adherently at 37° C., 5% CO2 and 95% humidity in cell culture bottles (e.g. 80 cm^2 TC flasks, Nunc) with DMEM-high glucose (Sigma Aldrich, D7777) including 10% FCS (PAN Biotech, e.g. 3302-P270521) or alternatively MEM Alpha Medium (1×, liquid, Invitrogen, #22571), 10% fetal calf serum (FCS) (Invitrogen, #10270-106, heat-inactivated) and the necessary selection antibiotics.
Before being sown out for the measurements, the cells are washed with a 1× DPBS buffer without Ca^2+/Mg^2+ (e.g. Invitrogen, #14190-094) and detached from the bottom of the culture vessel by means of Accutase (PAA Laboratories, #L11-007) (incubation with Accutase for 15 min at 37° C.). The cell count then present is determined using a CASY™ cell counter (TCC model, Schärfe System) in order subsequently to apply, depending on the density optimization for the individual cell line, 20,000-30,000 cells/well/100 μl of the described nutrient medium to 96-well measuring plates of the Corning™ CellBIND™ type (Flat Clear Bottom Black Polystyrene Microplates, #3340). Incubation is then carried out for one hour at room temperature, without gassing or adjusting the humidity, followed by incubation for 24 hours at 37° C., 5% CO2 and 95% humidity.
The voltage-sensitive fluorescent dye from the Membrane Potential Assay Kit (Red™ Bulk format part R8123 for FLIPR, MDS Analytical Technologies™) is prepared by dissolving the contents of a vessel Membrane Potential Assay Kit Red Component A in 200 ml of extracellular buffer (ES buffer, 120 mM NaCl, 1 mM KCl, 10 mM HEPES, 2 mM CaCl2, 2 mM MgCl2, 10 mM glucose; pH 7.4). After removal of the nutrient medium, the cells are washed with 200 μl of ES buffer, then covered with a layer of 100 μl of the dye solution prepared above and incubated for 45 min at room temperature with the exclusion of light.
The fluorescence measurements are carried out with a BMG Labtech FLUOstar™, BMG Labtech NOVOstar™ or BMG Labtech POLARstar™ instrument (525 nm excitation, 560 nm emission, Bottom Read mode). After incubation of the dye, 50 μl of the test substances in the desired concentrations, or 50 μl of ES buffer for control purposes, are introduced into separate cavities of the measuring plate and incubated for 30 min at room temperature while being shielded from light. The fluorescence intensity of the dye is then measured for 5 min and the fluorescence value F1 of each well is thus determined at a given, constant time. 15 μl of a […] KCl solution ([…]) are then added to each well. The change in fluorescence is subsequently measured until all the relevant measured values have been obtained (mainly 5-30 min). At a given time after KCl application, a fluorescence value F2 is determined, in this case at the time of the fluorescence peak.
For calculation, the fluorescence intensity F2 is compared with the fluorescence intensity F1, and the agonistic activity of the target compound on the potassium channel is determined therefrom. F2 and F1 are calculated as follows: […]
A substance has an agonistic activity on the potassium channel when
[formula] is to be observed as the dosage of the target compound increases. Calculations of EC50 and IC50 values are carried out with the aid of ‘Prism v4.0’ software (GraphPad Software™).

[2] = test system: withdrawal reflex of the rat tail (tail flick); experiment: Low-intensity tail flick test (rat); type: in vivo; settings: dose 10.00 mg/kg (in brackets in the cell)
Method: Method II. Low-Intensity Tail Flick Test (Rat)
In the low-intensity tail flick test, the determination of the antinociceptive effect of the compounds according to the invention towards an acute noxious thermal stimulus is carried out by measuring the withdrawal reflex of the rat tail (tail flick) in response to a radiant heat beam (analgesia meter; model 2011 of the company Rhema Labortechnik, Hofheim, Germany) according to the method described by D'Amour and Smith (J. Pharm. Exp. Ther. 72, 74 79 (1941). To this end, the rats were placed in a plexiglas restrainer, and a low-intensity radiant heat beam (48° C.) was focused onto the dorsal surface of the tail root. The stimulus intensity was adjusted to result in a mean pre-drug control withdrawal latency of about 7 s, thus also allowing a supraspinal modulation of the spinally mediated acute nociceptive reflex. […] Before administration of a compound according to the invention, the animals were pre-tested twice in the course of five minutes and the mean of these measurements was calculated as the pre-test mean. The antinociceptive effect was determined at 20, 40 and 60 min after peroral compound administration. The antinociceptive effect was calculated based on the increase in the tail withdrawal latency according to the following formula and is expressed as percentage of the maximum possible effect (MPE [%]): MPE=[(T1−T0)/(T2−T0)]*100 […]

pEC50 [1] | Emax [1] | SMILES | Low intensity tail flick, rat, peroral, % MPE (dose [mg/kg]) [2]
5.71 | 164% | Cc1c(C(=O)NCc2cccc(F)c2)n(C)c(=O)c2cc(C(F)(F)F)ccc12 [Example 1, N-(3-fluorobenzyl)-2,4-dimethyl-1-oxo-7-(trifluoromethyl)-1,2-dihydroisoquinoline-3-carboxamide] | 
6.42 | 144% | Cc1c(C(=O)NCc2cccc(F)c2)n(C(C)C)c(=O)c2cc(C(F)(F)F)ccc12 [Example 4, N-(3-fluorobenzyl)-2-isopropyl-4-methyl-1-oxo-7-(trifluoromethyl)-1,2-dihydroisoquinoline-3-carboxamide] | 

Continued, molecule first:

SMILES | pEC50 [1] | Emax [1] | Low intensity tail flick, rat, peroral, % MPE (dose [mg/kg]) [2]
CCCn1c(C(=O)NCc2cccc(F)c2)c(C)c2ccc(C(F)(F)F)cc2c1=O [Example 2, N-(3-fluorobenzyl)-4-methyl-1-oxo-2-propyl-7-(trifluoromethyl)-1,2-dihydroisoquinoline-3-carboxamide] | 6.91 | 134% | 10 (10.00) % MPE
CCn1c(C(=O)NCc2cccc(F)c2)c(C)c2ccc(C(F)(F)F)cc2c1=O [Example 3, 2-ethyl-N-(3-fluorobenzyl)-4-methyl-1-oxo-7-(trifluoromethyl)-1,2-dihydroisoquinoline-3-carboxamide] | 6.71 | 103% | 
COCCn1c(C(=O)NCc2cccc(F)c2)c(C)c2ccc(C(F)(F)F)cc2c1=O [Example 5, N-(3-fluorobenzyl)-2-(2-methoxyethyl)-4-methyl-1-oxo-7-(trifluoromethyl)-1,2-dihydroisoquinoline-3-carboxamide] | 6.55 | 87% | 
